Assay results reported in patent publication US20250082651A1, “GANAXOLONE FOR USE IN TREATING GENETIC EPILEPTIC DISORDERS” (Marinus Pharmaceuticals, Inc., priority 2017, published 2025).
“And” between values parts separate entries of the source, which are not always exact repeats. Identical values can stand only once.

Experiments:
[1] = tested on: subjects with focal onset seizure disorder; conditions: post hoc, subjects taking 3 or more concomitant AEDs, p=0.02; cited from earlier work
[2] = tested on: rabbits; test: Local tolerance study in rabbits; assay type: in vivo, rabbit
Procedure: When given IV to rats and dogs, the main dose limiting toxicity finding was sedation. The no observed adverse effect level (NOAEL) after IV dosing in rats for 14 days was established at 42 mg/kg/day for males and 30 mg/kg/day for females. The NOAEL in dog after administration of ganaxolone by IV bolus followed by continuous IV infusion for 28 days was 7.20 mg/kg/day, which corresponded to a steady-state concentration of approximately 330 ng/mL and 333 ng/mL. There were no findings in a local tolerance study in rabbits.

[3] = tested on: children with Lennox-Gastaut Syndrome; test: Phase 2 open-label trial, LGS cohort, seizure efficacy; assay type: in vivo, human
From the text: Example 3 concerns a Phase 2 Multicenter, Open-Label Proof-of-Concept Trial of ganaxolone (GNX) in cohorts of children having genetic epilepsies (PCDH19, CDKL5 LGS, and CSWS) (ClinicalTrials.gov Identifier: NCT02358538). There were 11 female children with PCDH19 epilepsy between 5-16 years old with a confirmed genetic mutation. There were 6 female and 1 male children with confirmed genetic mutations in the CDKL5 cohort. There were 10 children in the Lennox Gastaut Syndrome cohort. Two children with CSWS were enrolled into the study. The study was conducted with 12 weeks baseline, and up to 26 weeks of treatment followed by a 52 week open label treatment. The primary efficacy was the percentage change in seizure frequency per 28 days relative to baseline calculated using daily seizure diary. [Time Frame: 26 weeks]. Secondary Outcome Measures were: Clinician Global Impression of Change score as assessed by questionnaire. [Time Frame: 26 Weeks]; Patient Global Impression of Change score as assessed by questionnaire. [Time Frame: 26 Weeks]; Evaluation of safety and tolerability of open-label ganaxolone as adjunctive therapy for uncontrolled seizures in children with rare genetic epilepsies, based on adverse event log and other clinical safety assessments. [Time Frame: 26 weeks]; Responder rates [Time Frame: 26 weeks]; and Seizure free days [Time Frame: 26 weeks].
Following screening and baseline evaluations, consenting patients enrolled into a 26-week study during which investigators were allowed to flexibly dose ganaxolone up to a dose of 1,800 mg/day for patients whose body weight was >30 kg, or up to 63 mg/kg/day for patients whose body-weight was <30 kg. The primary efficacy measure is % change from baseline in the 28-day seizure frequency count. Safety and tolerability were within the secondary objectives of the study.
In this study, oral ganaxolone suspension or capsules were administered up to a total of 63 mg/kg/day (maximum 1800 mg/day) over 2-4 weeks. About six-eight titration steps are used, depending on the size of the patient. Children larger than 30 kg may take the ganaxolone capsules. The ganaxolone oral suspension was administered through an oral dosing syringe three times daily. The ganaxolone capsules were administered twice daily. The patients experience better absorption of the ganaxolone with meals (milk).
After establishing baseline seizure frequency, qualifying subjects entered the study and were treated with open-label ganaxolone oral suspension or ganaxolone capsules at doses up to a maximum of 1800 mg/day for up to 6 months. Maximum study participation was 94 weeks: a screening period up to 12 weeks to establish baseline seizure frequency, up to 26 weeks of treatment, a 52 week extension for subjects who benefited from ganaxolone treatment, and up to 4 weeks of down titration period. […] Refractive cases of LGS or CSWS that had prior response to steroid or ACTH could also have been enrolled.
Ganaxolone oral suspension was administered through an oral dosing syringe by parent or legal guardian 3 times daily (TID), following the morning, noon, and evening meal or snack. Each dose was separated by a minimum of 4 hours and a maximum of 8 hours. A missed dose of ganaxolone could have been taken up to 4 hours before the next scheduled dose; otherwise, the missed dose was not to be given.
Ganaxolone capsules were administered with a glass of water or other liquid 2 times daily (BID), following the morning and evening meal or snack. Ganaxolone was provided as either an oral suspension or capsules based on the subject's weight at study entry. Ganaxolone oral suspension was administered through an oral dosing syringe TID by a parent or guardian, following the morning, midday, and evening meal or snack. Each dose was separated by a minimum of 4 hours and a maximum of 8 hours. Ganaxolone capsules were administered BID, following the morning and evening meal or snack. […]

[4] = tested on: cytochrome P450 (CYP) isoenzymes 1A1/2 and 2B1/2; test: CYP induction and auto-induction in animals; assay type: in vivo, rat
[5] = tested on: dogs; test: Cardiovascular safety pharmacology, single dose in dogs; assay type: in vivo, dog; conditions: single dose of up to 15 mg/kg

For `CC(=O)[C@H]1CC[C@H]2[C@@H]3CC[C@H]4C[C@](C)(O)CC[C@]4(C)[C@H]3CC[C@]12C` [Ganaxolone, 3α-hydroxy-3β-methyl-5α-pregnan-20-one], the “Greater reduction in median seizure frequency than placebo” value [1] is given as 20%, the Local tolerance [2] is given as “no findings” and the “28-day seizure frequency, sum of individual seizures and clusters, post-baseline 26-week open-label period, Mean (SD)” value ([3]; LGS N=10, MITT) is given as 263.66 (502.176). For the same compound, the “28-day seizure frequency, sum of individual seizures and clusters, post-baseline 26-week open-label period, Median” value ([3]; LGS N=10, MITT) was 65.08, the “28-day seizure frequency, sum of individual seizures and clusters, post-baseline through Month 3 (Day 91), Mean (SD)” value ([3]; LGS N=10, MITT) was 263.91 (502.477) and the “28-day seizure frequency, sum of individual seizures and clusters, post-baseline through Month 3 (Day 91), Median” value ([3]; LGS N=10, MITT) was 75.91. For the same compound, the “Percent change from baseline (at Day 91), 28-day seizure frequency, sum of individual seizures and clusters, Mean (SD)” value ([3]; LGS N=10, MITT) was 122.10% and 122.10 (321.124) %, the “Percent change from baseline (at Week 26), 28-day seizure frequency, sum of individual seizures and clusters, Mean (SD)” value ([3]; LGS N=10, MITT) was 125.38% and 125.38 (319.051) % and the “Percent change from baseline (at Week 26), 28-day seizure frequency, sum of individual seizures and clusters, Median” value ([3]; LGS N=10, MITT) was −9.19%. The “Mean percent change in 28-day total seizure frequency from baseline to Week 26” value ([3]; LGS cohort, PP Population) was 18.43%, the “Median percent change in 28-day total seizure frequency from baseline to Week 26” value ([3]; LGS cohort, PP Population) was 11.15% and the “Clinical global impression of improvement: much improved” value ([3]; LGS cohort, end of Week 26) was 1 subject. The “Clinical global impression of improvement: very much improved” value ([3]; LGS cohort, end of Week 26) was 1 subject, the “Percent change from baseline (at Day 91), 28-day individual seizure frequency, Mean (SD)” value ([3]; LGS n=9, MITT) was 226.72% and 226.72 (496.750) % and the “Percent change from baseline (at Day 91), 28-day individual seizure frequency, Median” value ([3]; LGS n=9, MITT) was −9.56%. The “Percent change from baseline (at Week 26), 28-day individual seizure frequency, Mean (SD)” value ([3]; LGS n=9, MITT) was 229.90% and 229.90 (494.164) %, the “Percent change from baseline (at Week 26), 28-day individual seizure frequency, Median” value ([3]; LGS n=9, MITT) was 5.04% and the “28-day individual seizure frequency, post-baseline 26-Week open-label period, Mean (SD)” value ([3]; LGS n=10, MITT) was 257.07 (503.453). The “28-day individual seizure frequency, post-baseline 26-Week open-label period, Median” value ([3]; LGS n=10, MITT) was 55.93, the “28-day individual seizure frequency, post-baseline through Month 3 (Day 91), Mean (SD)” value ([3]; LGS n=10, MITT) was 256.48 (503.934) and the “28-day individual seizure frequency, post-baseline through Month 3 (Day 91), Median” value ([3]; LGS n=10, MITT) was 64.71. For the same compound, the Auto-induction ([4]; dogs) was “no auto-induction”, the “Induction of CYP isoenzymes 1A1/2 and 2B1/2” value ([4]; female rats) was “induces” and the “Induction of CYP isoenzymes 1A1/2 and 2B1/2” value ([4]; male rats) was “not males”. The Auto-induction ([4]; mouse and rat) was “Auto-induction has also been observed” and the “Effect on cardiovascular parameters” value [5] was “no effect”.
